Reference: US20240050560A1, “SELF-SUSTAINED RELEASE IMMUNE ADJUVANT SUSPENSION, PREPARATION METHOD THEREFOR, AND USE THEREOF” (priority 2020, published 2024)
Counter-ions that a name gives are not always drawn.

What was measured:
[1] = tested on: colon cancer (CT26) tumors; experiment: Oxaliplatin in combination with micron-sized imiquimod suspension, two-sided tumor model; assay type: in vivo, mice; settings: Day 15 after treatment; 30 μL intratumoral; oxaliplatin 4 mg/mL, imiquimod 6 mg/mL
Experimental: Mice were inoculated with different amounts of colon cancer (CT26) tumors on both sides of the back in mice (the inoculated amount on the left side was ⅕ of that on the right side) to establish a subcutaneous two-sided tumor model, wherein the tumor on the right side was deemed an in-situ tumor, and that on the left right was deemed a distal tumor. Once the in-situ tumors reached a size of about 100 mm^3, the mice were randomly divided into 4 groups, which were treated respectively.
On Day 1 of the treatment, the in-situ tumor was administered by intratumoral injection, wherein the concentration of oxaliplatin was 4 mg/mL, and the concentration of imiquimod was 6 mg/mL. After administration, the tumor volume in mice was recorded to plotted a growth curve of ice.

[2] = Platinum in blood and organs (ICP-MS) after intratumoral oxaliplatin with or without imiquimod suspension; settings: platinum in blood after intratumoral injection
Excerpt: Mice were inoculated with colon cancer (CT26) tumor cells on the back of the tumor in mice to establish a subcutaneous tumor model in mice.

mouse colon CT26 tumor = experiment: Oxaliplatin chemotherapy combined with imiquimod micro-formulation, in-situ and distal tumor growth; assay type: in vivo, mice; settings: intratumoral injection, chemotherapeutic alone
Experimental: The length and width of the tumor in mice were regularly measured, and the volume of tumor was calculated as follows: (length×(width) 2)/2.

tumor cells = experiment: Micron-sized imiquimod suspension in combination with ethanol ablation, subcutaneous tumor model; assay type: in vivo, mice; settings: imiquimod suspension 12 mg/mL peritumoral; absolute ethanol 30 μL intratumoral
Excerpt: First, a subcutaneous tumor model in mice was established. In particular, mice were inoculated with tumor cells on their back. Once the tumors grew to a volume of 100 mm^3, the mice were randomly divided into 5 groups with 5 mice in each group.
The mice were monitored for the changes in tumor volumes, and the curves of tumor growth were plotted.

in vivo [3] = settings: mouse, whole blood, 6 mg/kg
Experimental: Water-insoluble R837 powder was prepared into microparticles with a particle size of 1-3 microns, which were intratumorally injected and then monitored for the pharmacokinetics and intratumoral retention time.
Experimental method: Mice were transplanted with mouse colon cancer (CT26) tumor on their backs, and randomly divided to 3 groups with 3 mice in each group for the pharmacokinetic study.
Group 1: The mice were intratumorally injected with micromolecule imiquimod hydrochloride with an injection dose of 6 mg/kg.
Group 2: The mice were intratumorally injected with imiquimod/PLGA nano-particles (with an average particle size of about 100 nm) with an injection dose of 6 mg/kg.
Group 3: The mice were intratumorally injected with imiquimod microparticles (the present formulation) with an injection dose of 6 mg/kg.

[4] = 72 h after intratumoral injection, 6 mg/kg, CT26 mice
Experimental: Experimental method: Mice were transplanted with mouse colon cancer (CT26) tumor on their backs, and randomly divided to 3 groups with 3 mice in each group for the study of drug distribution behavior. • Group 1: The mice were intratumorally injected with the micromolecule imiquimod hydrochloride with an injection dose of 6 mg/kg; • Group 2: The mice were intratumorally injected with imiquimod nano-particles (with average particle size of about 100 nm) encapsulated with polylactic-glycolic acid copolymer (PLGA) with an injection dose of 6 mg/kg; and • Group 3: The mice were intratumorally injected with imiquimod microparticles (the present formulation) with an injection dose of 6 mg/kg.

in vivo [5] = settings: mouse, whole blood
Excerpt: Mice were inoculated with CT26 tumor cells on their back to establish a CT26 subcutaneous tumor model of mice. Mice with the same tumor size were equally divided to 3 groups with 3 mice in each group.

O=C1[O][Pt]2([NH][C@@H]3CCCC[C@H]3[NH]2)[O]C1=O [OXA, oxaliplatin]
Tumor Inhibition Rate, Distant tumor [1]: 41.87% | Tumor Inhibition Rate, In-situ tumor [1]: 69.56% | Tmax (H) [2]: 3 H | Growth of distal tumors (FIG. 11) (mouse colon CT26 tumor): does not produce significant inhibitory effect | Growth of in-situ tumors (FIG. 10) (mouse colon CT26 tumor): can inhibit the growth of in-situ tumors

CCO [absolute ethanol, ethanol]
Tumor growth / tumor volumes (FIG. 14) (tumor cells): not highly different from those of the control group

CC(C)Cn1cnc2c(N)nc3ccccc3c21 [Micromolecule imiquimod hydrochloride, imiquimod hydrochloride]
half-life (in vivo [3]): 12 h | Retention of imiquimod in tumor and main organs (FIG. 3) [4]: extremely low overall retention | AUC (in vivo [5]): 140 ng·h/mL | Cmax (in vivo [5]): 17.4 ng/mL | Tmax (in vivo [5]): 0.5 h | half-life (in vivo [5]): 7.7 h | Blood concentration of drug (at 48 h and 72 h after intratumoral injection 6 mg/kg): below the limit of detection | Average Retention Time (intratumoral injection 6 mg/kg, CT26 mice, average of 3): 11 h
